# Measurements: patent publication US8105798B2, “Cytoplasmic activity of retinoid X receptor and its regulation by ligands and dimerization” (The Burnham Institute, priority 2003, dated 2012)
# What was measured:
# [1] = test system: TR3; test: subcellular localization of TR3 and RXRα/TR3 heterodimer by confocal microscopy; assay type: cell-based; conditions: 75 μM
# Description: FIG. 10 is a series of confocal microscope images of immunostained PC12 cells illustrating that binding of 15d-PGJ2 to RXRα induces translocation of RXRα homodimer/monomer or TR3/RXRα heterodimer from the nucleus to the cytoplasm. Expression vectors for Flag-RXRα and GFP-TR3 were transfected into PC12 cells alone or together. Cells were then treated with 15d-PGJ2 (5.micro.M) for 3 hr, then immunostained with anti-Flag antibody to detect RXRα Flag-RXRα and GFP-TR3 were visualized by confocal microscopy, and their images merged.
# In the absence of TPA, both TR3 and RXRα reside mainly in the nucleus. […] (FIG. 2).
# Because RXR heterodimerizes with TR3, Inventor examined the effect of 15d-PGJ2 on TR3 subcellular localization in PC12 phaeochromocytoma cells.
# Either TR3 alone, RXRα alone or TR3 and RXRα was transfected into HEK293T cells. Cells were then treated with sulindac sulfide (75.micro.M) for 6 hr. RXR.alpha and TR3 localization was determined by immunostaining, and cells were also stained by DAPI. […] Thus, the effect of sulindac sulfide on the cytoplasmic localization of TR3 depends on RXRα expression, probably due to their heterodimerization. Thus, sulindac sulfide induces nuclear export of RXRα and RXRα/TR3 heterodimer. (FIG. 14b).
# The effect of sulindac sulfide on mitochondrial targeting of RXRα and TR3 was determined by treating H460 lung cancer cells with 75 micro.M sulindac sulfide for 6 hours and visualization of the cellular localization of these proteins by immunostaining. A two stage detection system was used having either anti-RXR or anti TR3 as a first stage (Santa Cruz Biotechnology and Abgent, respectively). In the absence of treatment, both RXRα and TR3 were found mainly in the nucleus.
# [2] = test system: H460, MGC80-3 and LNCaP cells; test: cytochrome c release by immunostaining; assay type: cell-based; conditions: 75 μM, 6 hr
# Description: To uncover the consequence of RXRα mitochondrial localization induced by sulindac sulfide, H460, MGC80-3 and LnCap cells were treated with or without sulindac sulfide and RXRα mitochondrial and cytochrome c release were determined by immunostaining, as described above. Cells were treated with or without sulindac sulfide (75.micro.M) for 6 hr. Cells were then stained with RXRα, Hsp6, and cytochrome c (cyt c).
# [3] = test system: CV-1, MGC80-3, HEK293T and HCT116 cells; test: apoptosis determined by DAPI staining; assay type: cell-based; conditions: 75 μM, 24 hr
# Description: To determine the involvement of RXRα in sulindac sulfide-induced apoptosis of cancer cells, its effect on apoptosis of CV-1 cells (available from American Type Cell Culture, Manassas, Va., as accession number CCL-70) in the absence or presence of RXRα transfection was evaluated. FIG. 13a. RXR was cloned into a pGFP.C2 vector (GenBank Accession #: U19281) according to the procedure of Li et al., Science 289, 1159-1164 (2000). CV-1 cells were transfected with or without RXRα prior to treatment with sulindac sulfide (75.micro.M) for 24 hr. […] Louis, Mo., as catalogue number D9542), and the presence of nuclear fragmentation and/or chromatin condensation is an indicator of apoptosis. […] The requirement of RXRαwas also examined using RXRα siRNA SEQ ID No.: 12 approach. MGC80-3 cells, HEK293T (ATCC, accession number CCL-1573) and HCT116 (ATCC, accession number CCL-247) cell lines were transfected with RXRα siRNA or control siRNA using oligofectamine (from Invitrogen, Corp). Cell samples from each cell line were lysed and the cell extracts were prepared by immunoblotting to determine RXRα expression. Cells transfected with RXR.alpha siRNA or control siRNA were treated with sulindac sulfide (75.micro.M) for 24 hr, and apoptosis was determined by DAPI staining.
# [4] = target: T1, RXRα LBD protein (Homo sapiens, UniProt P19793); test: sensitivity of RXRα protein to chymotrypsin digestion; assay type: biochemical; conditions: 100 μM sulindac sulfide
# T1 construct: made in house; host or cells: E. coli BL21 (pET vector, Novagen)
# T1 sequence (P19793 224-462): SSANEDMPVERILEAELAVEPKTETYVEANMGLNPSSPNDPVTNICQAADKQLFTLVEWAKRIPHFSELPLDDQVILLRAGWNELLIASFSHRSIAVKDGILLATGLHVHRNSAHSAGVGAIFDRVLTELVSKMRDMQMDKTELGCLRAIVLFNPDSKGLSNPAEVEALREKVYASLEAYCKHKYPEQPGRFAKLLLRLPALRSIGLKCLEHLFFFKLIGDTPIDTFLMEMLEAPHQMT
# Description: (FIG. 12b). LBD protein was incubated in the absence (DMSO) or presence of sulindac sulfide (100.micro.M) and then subjected to digestion by chymotrypsin for 30 min. Briefly, SEQ ID No.: 11 was cloned into the pET vector system available from Novagen and the recombinant vector was transformed into and expressed in BL21 cells. Digested reactions were separated by SDS-PAGE and visualized by Commassie blue staining. 35^S RXR protein was incubated for 30 minutes at room temperature in the presence or absence of 100.micro.M sulindac sulfide. Chymotrypsin was then added to a series of labeled protein reactions at final concentrations of 0, 37.5, 75, 150 and 300.micro.g per ml, and digestion proceeded for 20 minutes.
smiles,measurement,setting,value
CSc1ccc(/C=C2/C(C)=C(CC(=O)O)c3cc(F)ccc32)cc1 [sulindac sulfide],mitochondrial targeting of RXRα and TR3 (Hsp60),"[1]; H460 lung cancer cells, 6 hours",extensive co-localization of RXRα and TR3 with Hsp60
same,"TR3 and RXRα localization, co-transfected","[1]; HEK293T cells, 6 hr",both TR3 and RXRα are found in the cytoplasm
same,"TR3 localization, TR3 transfected alone","[1]; HEK293T cells, 6 hr",does not affect the nuclear localization of TR3
same,cytochrome c release,[2],massively released
same,"apoptosis, cells transfected with RXRα","[3]; CV-1 cells, DAPI staining",extensive apoptosis
same,apoptosis in cells transfected with RXRα siRNA versus control siRNA,"[3]; MGC80-3, HEK293T and HCT116 cells",significant reduction of apoptosis
same,sensitivity of RXRα protein to chymotrypsin,[4],modulation of sensitivity of RXRα protein to chymotrypsin
